Results: patent US20240139376A1, “RECONSTITUTION OF EXTRACELLULAR MATRIXES FOR MUSCULOSKELETAL JOINT TISSUE REPAIR USING BIOMIMETIC BIOLOGIC AND SYNTHETIC FACTORS” (Rhode Island Hospital, priority 2021, published 2024)

Key:
Human CPCs [1] = assay: RT-qPCR of chondrogenic and hypertrophy markers after KGN treatment, CPCs; format: cell-based
Description: (§1) 1 μM KGN enhances chondrogenesis of CPCs but not MSCs. The following materials and methods were used to generate the data described herein. Human CPCs and bone marrow derived mesenchymal stem cells (BM-MSCs) were cultured at 40,000 cells/well for 3 days or 22,000 cells/well for 10 days on 12-well plates. Cells were either untreated or treated with 500 nM, 1 μM, 10 μM, or 100 μM KGN (Sigma-Aldrich) at N=5 for each treatment group. At experimental endpoint following KGN treatment, RT-qPCR was used the measure expression of chondrogenic markers SRY-Box Transcription Factor 9 (SOX9), collagen 2 (COL2), collagen 1 (COL1) (FIG. 3A) as well as hypertrophy and catabolism markers, associated with development of osteoarthritis, collagen 10 (COL10), matrix metallopeptidase 13 (MMP13), Runt-related transcription factor 2 (RUNX2) (FIG. 3B).
(§2) Human CPCs and BM-MSCs were cultured at 40,000 cells/well for 3 days or 22,000 cells/well for 10 days on 12-well plates. Cells were either untreated or treated with 500 nM, 1 uM, 10 uM, or 100 uM KGN (Sigma-Aldrich) at N=5 for each treatment group. At experimental endpoint following KGN treatment, RT-qPCR was used the measure expression of chondrogenic markers SOX9, COL2, COL1 as well as hypertrophy and catabolism markers COL10, MMP13, RUNX2. CPCs and BM-MSCs were cultured again at 22,000 cell/swell for 10 days in 12-well plates and again treated with KGN. At 5 and 10 days of treatment, cell culture supernatant was collected, with cell media and KGN replenished at the 5-day timepoint (N=3). Supernatants were used to perform ELISA for measuring MMP13 protein. At day 10, cell culture plates were stained for Alcian Blue (N=4). The color was extracted and the absorbances were quantified via spectrophotometry, to assess acidic glycosaminoglycans (GAG) and hyaluronan (HA). In analysis, within and between group differences were assessed through 2-way ANOVA with Dunnett's multiple comparisons test. Significant differences are signified by p-values≤0.05.

[2] = test system: bone marrow derived mesenchymal stem cells (BM-MSCs); assay: RT-qPCR of chondrogenic and hypertrophy markers after KGN treatment, BM-MSCs; format: cell-based, Human
Description: as §1, §2

Human CPCs [3] = assay: ELISA for MMP13 protein in cell culture supernatant, CPCs; format: cell-based; conditions: all treatment groups
Description: (§3) CPCs and BM-MSCs were cultured again at 22,000 cell/swell for 10 days in 12-well plates and again treated with KGN. At 5 and 10 days of treatment, cell culture supernatant was collected, with cell media and KGN replenished at the 5-day timepoint (N=3). Supernatants were used to perform ELISA for measuring MMP13 protein. At day 10, cell culture plates were stained for Alcian Blue (N=4). The color was extracted and the absorbances were quantified via spectrophotometry, to assess acidic glycosaminoglycans (GAG) and hyaluronan (HA). In analysis, within and between group differences were assessed through 2-way ANOVA with Dunnett's multiple comparisons test. Significant differences are signified by p-values ≤0.05.
(§4) Human CPCs and BM-MSCs were cultured at 40,000 cells/well for 3 days or 22,000 cells/well for 10 days on 12-well plates. Cells were either untreated or treated with 500 nM, 1 uM, 10 uM, or 100 uM KGN (Sigma-Aldrich) at N=5 for each treatment group. […] The color was extracted and the absorbances were quantified via spectrophotometry, to assess acidic glycosaminoglycans (GAG) and hyaluronan (HA). In analysis, within and between group differences were assessed through 2-way ANOVA with Dunnett's multiple comparisons test. […]

BM-MSCs [4] = assay: ELISA for MMP13 protein in cell culture supernatant, BM-MSCs; format: cell-based, Human
Description: as §3, §2

Human CPCs [5] = assay: Alcian Blue staining (GAG and HA), CPCs; format: cell-based; conditions: 1 μM KGN, 10 days, p<0.05
Description: as §3, §4

BM-MSCs [6] = assay: Alcian Blue staining (GAG and HA), BM-MSCs; format: cell-based, Human; conditions: 10 days
Description: as §3, §4

For `O=C(O)c1ccccc1C(=O)Nc1ccc(-c2ccccc2)cc1` [KGN, kartogenin], the “expression of MMP13” value (Human CPCs [1]; 1 μM KGN, 3 days) was “increased”, the “expression of RUNX2” value (Human CPCs [1]; 1 μM KGN, 3 days) was “increased” and the “expression of RUNX2” value (Human CPCs [1]; 10 μM KGN, 3 days) was “increased”. The “expression of RUNX2” value (Human CPCs [1]; 100 μM KGN, 3 days) was “increased”, the “upregulation of COL2 mRNA” value (Human CPCs [1]; CPCs, 1 μM KGN, 3 days, p<0.0001) was 2 fold and the “upregulation of SOX9 mRNA” value (Human CPCs [1]; CPCs, 1 μM KGN, 3 days, p<0.05) was 2 fold. For the same molecule, the “upregulation of COL2 mRNA” value (Human CPCs [1]; CPCs, 1 μM KGN, 10 days, p<0.05) was “maintained”, the “expression of COL10” value ([2]; 100 μM KGN, 10 days, p<0.05) was “significantly reduced” and the “expression of MMP13” value ([2]; 100 μM KGN, 10 days, p<0.05) was “significantly reduced”. The “expression of COL1” value ([2]; KGN) was “did not increase”, the “expression of COL2” value ([2]; KGN) was “did not increase” and the “expression of SOX9” value ([2]; KGN) was “did not increase”. The “MMP13 protein in supernatant” value (Human CPCs [3]; 0-5 days KGN treatment) was “undetectable”, the “MMP13 protein in supernatant” value (Human CPCs [3]; 6-10 days KGN treatment) was “undetectable” and the “protein levels of MMP13” value (BM-MSCs [4]; 10 μM KGN, 0-5 days, p<0.001) was “significant decrease”. The “protein levels of MMP13” value (BM-MSCs [4]; 10 μM KGN, 5-10 days, p<0.05) was “significant decrease”, the “protein levels of MMP13” value (BM-MSCs [4]; 100 μM KGN, 0-5 days, p<0.0001) was “significant decrease” and the “protein levels of MMP13” value (BM-MSCs [4]; 100 μM KGN, 5-10 days, p<0.0001) was “significant decrease”. For the same molecule, the “Alcian Blue staining intensity vs untreated” value (Human CPCs [5]) was “increased intensity”, the “Alcian Blue staining intensity vs untreated” value (BM-MSCs [6]; 10 μM KGN, p<0.05) was “stained more intensely” and the “Alcian Blue staining intensity vs untreated” value (BM-MSCs [6]; 100 μM KGN, p<0.0001) was “stained more intensely”.
